Assay results reported in US8466176B2 (priority 2008, dated 2013).

Test: logP(HCOOH) reported with HPLC/MS
Conditions: HCOOH (formic acid), logP(HCOOH), HPLC/MS
`Cn1nnnc1C(=NOCc1csc(C#CCOCc2ccccc2)n1)c1ccccc1` [Example 263, N-({2-[3-(benzyloxy)prop-1-yn-1-yl]-1,3-thiazol-4-yl}methoxy)-1-(1-methyl-1H-tetrazol-5-yl)-1-phenylmethanimine] showed a chromatographic logP of 4.04. `CCCCCON(C(=O)OC(C)(C)C)c1cccc(CON=C(c2ccccc2)c2nnnn2C)n1` [Example 268, tert-butyl {6-[({[(1-methyl-1H-tetrazol-5-yl)(phenyl)methylene]amino}oxy)methyl]pyridin-2-yl}(pentyloxy)carbamate] gave a chromatographic logP of 5.25.

Same assay, conditions: HPLC/MS
In the case of `CCCCCONc1cccc(CON=C(c2ccccc2)c2nnnn2C)n1` [Example 269, 6-[({[(1-methyl-1H-tetrazol-5-yl)(phenyl)methylene]amino}oxy)methyl]-(pentyloxy)pyridin-2-amine], the “logP(HCOOH)” value is reported as 3.87.

Same assay, conditions: method [a]: HPLC on reversed phase columns, pH 2.3 with 0.1% phosphoric acid and acetonitrile as eluent
For `CCCC#Cc1nc(CON=C(c2ccccc2)c2nnnn2C)cs1` [Example 261], the log p was 3.89^[a].

Same assay, conditions: method [b]: LC-MS at pH 2.7 with 0.1% formic acid in water and acetonitrile (0.1% formic acid), linear gradient 10% to 95% acetonitrile
For `Cn1nnnc1C(=NOCc1csc(C#Cc2ccccc2C(F)(F)F)n1)c1ccccc1` [Example 267], the log p was 4.51^[b]. With `CCCCCONc1cccc(CON=C(c2ccccc2)c2nnnn2C)n1` [Example 269, 6-[({[(1-methyl-1H-tetrazol-5-yl)(phenyl)methylene]amino}oxy)methyl]-(pentyloxy)pyridin-2-amine] the log p was 3.87^[b]. In the case of `CCCCON(C(=O)OC(C)(C)C)c1cccc(CON=C(c2ccccc2)c2nnnn2C)n1` [Example 280], the log p is reported as 4.75^[b]. For `Cn1nnnc1C(=NOCc1cccc(N(OCCc2ccccc2)C(=O)OC(C)(C)C)n1)c1ccccc1` [Example 281], the log p was 4.89^[b]. For `Cn1nnnc1C(=NOCc1cccc(N(OCc2ccccc2)C(=O)OC(C)(C)C)n1)c1ccccc1` [Example 282], the log p was 4.65^[b]. With `Cn1nnnc1C(=NOCc1cccc(N(OCC2CCCCC2)C(=O)OC(C)(C)C)n1)c1ccccc1` [Example 283] the log p was 6.25[b]. In the case of `Cn1nnnc1C(=NOCc1cccc(NOCC2CCCCC2)n1)c1ccccc1` [Example 284], the log p is reported as 4.44^[b]. For `Cn1nnnc1C(=NOCc1cccc(NOCc2ccccc2)n1)c1ccccc1` [Example 285], the log p was 3.14^[b]. In the case of `CCCCONc1cccc(CON=C(c2ccccc2)c2nnnn2C)n1` [Example 286], the log p is reported as 3.39^[b]. For `Cn1nnnc1C(=NOCc1cccc(NOCCc2ccccc2)n1)c1ccccc1` [Example 287], the log p was 3.69^[b]. In the case of `Cn1nnnc1C(=NOCc1cccc(NCC2CC2)n1)c1cccc(F)c1` [Example 290], the log p is reported as 1.98^[b]. For `Cn1nnnc1C(=NOCc1cccc(NCCC2CCCCC2)n1)c1cccc(F)c1` [Example 291], the log p was 3.27^[b]. With `CSc1cccc(C(=NOCc2cccc(NCC3CCCCC3)n2)c2nnnn2C)c1` [Example 292] the log p was 3.02^[b]. For `CCc1ccc(C#Cc2nc(CON=C(c3cccc(F)c3)c3nnnn3C)cs2)cc1` [Example 293], the log p was 5^[b]. In the case of `CCOc1ccc(C#Cc2nc(CON=C(c3cccc(F)c3)c3nnnn3C)cs2)cc1` [Example 294], the log p is reported as 4.62^[b]. With `CCCCCCNc1cccc(CON=C(c2cccc(SC)c2)c2nnnn2C)n1` [Example 296] the log p was 2.78^[b]. In the case of `CSc1cccc(C(=NOCc2cccc(NCCC3CCCCC3)n2)c2nnnn2C)c1` [Example 298], the log p is reported as 3.17^[b]. With `CSc1cccc(C(=NOCc2csc(Br)n2)c2nnnn2C)c1` [Example 299] the log p was 3.55^[b]. In the case of `Cn1nnnc1C(=NOCc1cccc(NC2CC3CCC2C3)n1)c1ccccc1` (stereo not shown) [Example 300], the log p is reported as 2.45^[b]. With `CCCCC#Cc1nc(CON=C(c2cccc(SC)c2)c2nnnn2C)cs1` [Example 301] the log p was 4.78^[b]. For `CSc1cccc(C(=NOCc2csc(C#CC3CC3)n2)c2nnnn2C)c1` [Example 303], the log p was 3.99^[b]. In the case of `CSc1cccc(C(=NOCc2csc(C#CC3CCCCC3)n2)c2nnnn2C)c1` [Example 304], the log p is reported as 5.29^[b]. In the case of `CSc1cccc(C(=NOCc2csc(NCCCc3ccccc3)n2)c2nnnn2C)c1` [Example 305], the log p is reported as 3.71^[b]. In the case of `CC(C)CSC(=O)Nc1cccc(CON=C(c2ccccc2)c2nnnn2C)n1` [Example 308], the log p is reported as 4.21^[b]. In the case of `Cn1nnnc1C(=NOCc1cccc(NC(=O)SC(C)(C)C)n1)c1ccccc1` [Example 309], the log p is reported as 4.19^[b].

Same assay, conditions: method [b]: LC-MS, pH 2.7 with 0.1% formic acid in water and acetonitrile (0.1% formic acid), linear gradient 10% to 95% acetonitrile
For `COc1ccccc1C#Cc1cccc(CON=C(c2ccccc2)c2nnnn2C)n1` [Example 222], the log p was 3.89^[b]. For `Cn1nnnc1C(=NOCc1cccc(C#Cc2ccc(F)cc2)n1)c1ccccc1` [Example 223], the log p was 4.11^[b]. In the case of `Cn1nnnc1C(=NOCc1cccc(C#Cc2ccc(C#N)cc2)n1)c1ccccc1` [Example 224], the log p is reported as 3.69^[b]. In the case of `Cn1nnnc1C(=NOCc1cccc(C#Cc2cccc(C#N)c2)n1)c1ccccc1` [Example 225], the log p is reported as 3.69^[b]. For `CCCCOc1ccc(C#Cc2cccc(CON=C(c3ccccc3)c3nnnn3C)n2)cc1` [Example 226], the log p was 5.29^[b]. With `CCOc1ccc(C#Cc2cccc(CON=C(c3ccccc3)c3nnnn3C)n2)cc1` [Example 227] the log p was 4.41^[b]. For `COc1ccc(C#Cc2cccc(CON=C(c3ccccc3)c3nnnn3C)n2)cc1` [Example 228], the log p was 4.01^[b]. For `CC(C)c1ccc(C#Cc2cccc(CON=C(c3ccccc3)c3nnnn3C)n2)cc1` [Example 229], the log p was 5.14^[b]. For `CCc1ccc(C#Cc2cccc(CON=C(c3ccccc3)c3nnnn3C)n2)cc1` [Example 230], the log p was 4.81^[b]. With `Cc1ccc(C#Cc2cccc(CON=C(c3ccccc3)c3nnnn3C)n2)cc1` [Example 231] the log p was 4.44^[b]. For `Cn1nnnc1C(=NOCc1cccc(C#Cc2ccc(N3CCCCC3)cc2)n1)c1ccccc1` [Example 232], the log p was 4.81^[b]. In the case of `Cn1nnnc1C(=NOCc1cccc(C#Cc2cc(F)cc(F)c2)n1)c1ccccc1` [Example 233], the log p is reported as 4.31^[b]. In the case of `Cn1nnnc1C(=NOCc1cccc(C#Cc2ccc(Oc3ccccc3)cc2)n1)c1ccccc1` [Example 234], the log p is reported as 5.08^[b]. For `CCCCCCC#Cc1cccc(CON=C(c2ccccc2)c2nnnn2C)n1` [Example 235], the log p was 5.11^[b]. With `Cn1nnnc1C(=NOCc1cccc(C#CCC2CCCC2)n1)c1ccccc1` [Example 236] the log p was 4.78^[b]. With `Cn1nnnc1C(=NOCc1cccc(C#CCCC2CCCCC2)n1)c1ccccc1` [Example 237] the log p was 5.62^[b]. With `Cn1nnnc1C(=NOCc1cccc(C#CCc2ccccc2)n1)c1ccccc1` [Example 238] the log p was 4.09^[b]. For `Cn1nnnc1C(=NOCc1cccc(C#CCCCC#N)n1)c1ccccc1` [Example 239], the log p was 2.9^[b]. With `COC(C)(C)C#Cc1cccc(CON=C(c2ccccc2)c2nnnn2C)n1` [Example 240] the log p was 3.42^[b]. With `CCCOC(C)(C)C#Cc1cccc(CON=C(c2ccccc2)c2nnnn2C)n1` [Example 241] the log p was 4.31^[b]. With `Cn1nnnc1C(=NOCc1cccc(C#CCN2CCOCC2)n1)c1ccccc1` [Example 242] the log p was 1.44^[b]. For `CCSCC#Cc1cccc(CON=C(c2ccccc2)c2nnnn2C)n1` [Example 243], the log p was 3.69^[b]. In the case of `CCCc1ccc(C#Cc2cccc(CON=C(c3ccccc3)c3nnnn3C)n2)cc1` [Example 244], the log p is reported as 5.23^[b]. In the case of `Cn1nnnc1C(=NOCc1cccc(C#Cc2ccc(C(C)(C)C)cc2)n1)c1ccccc1` [Example 245], the log p is reported as 5.44^[b]. With `CCCOc1ccc(C#Cc2cccc(CON=C(c3ccccc3)c3nnnn3C)n2)cc1` [Example 246] the log p was 4.86^[b]. For `Cn1nnnc1C(=NOCc1cccc(C#Cc2ccccc2F)n1)c1ccccc1` [Example 247], the log p was 4.06^[b]. With `Cn1nnnc1C(=NOCc1cccc(C#Cc2cccc(F)c2)n1)c1ccccc1` [Example 248] the log p was 4.16^[b]. For `Cn1nnnc1C(=NOCc1cccc(C#Cc2cccc(OC(F)(F)F)c2)n1)c1ccccc1` [Example 249], the log p was 4.75^[b]. With `Cn1nnnc1C(=NOCc1cccc(C#Cc2ccc(Cl)cc2)n1)c1ccccc1` [Example 250] the log p was 4.54^[b]. With `CN(C)c1ccc(C#Cc2cccc(CON=C(c3ccccc3)c3nnnn3C)n2)cc1` [Example 251] the log p was 4.29^[b]. For `Cn1nnnc1C(=NOCc1cccc(C#CCCO)n1)c1ccccc1` [Example 253], the log p was 2.23^[b]. For `CCC(=O)OCC#Cc1cccc(CON=C(c2ccccc2)c2nnnn2C)n1` [Example 254], the log p was 3.29^[b]. For `Cn1nnnc1C(=NOCc1cccc(C#CCOCc2ccccc2)n1)c1ccccc1` [Example 255], the log p was 3.96^[b]. For `CCCOc1ccc(C#Cc2nc(CON=C(c3ccccc3)c3nnnn3C)cs2)cc1` [Example 256], the log p was 5.03^[b]. In the case of `CC(C)c1ccc(C#Cc2nc(CON=C(c3ccccc3)c3nnnn3C)cs2)cc1` [Example 257], the log p is reported as 5.29^[b]. In the case of `CCCCOc1ccc(C#Cc2nc(CON=C(c3ccccc3)c3nnnn3C)cs2)cc1` [Example 258], the log p is reported as 5.44^[b]. In the case of `Cn1nnnc1C(=NOCc1csc(C#Cc2cccc(C#N)c2)n1)c1ccccc1` [Example 259], the log p is reported as 3.76^[b]. In the case of `Cn1nnnc1C(=NOCc1csc(C#Cc2ccccc2F)n1)c1ccccc1` [Example 260], the log p is reported as 4.15^[b]. For `Cn1nnnc1C(=NOCc1csc(C#Cc2ccc(F)cc2)n1)c1ccccc1` [Example 262], the log p was 4.16^[b]. For `Cn1nnnc1C(=NOCc1csc(C#Cc2cccc(F)c2)n1)c1ccccc1` [Example 264], the log p was 4.19^[b]. With `Cn1nnnc1C(=NOCc1csc(C#Cc2cccc(OC(F)(F)F)c2)n1)c1ccccc1` [Example 265] the log p was 4.81^[b]. In the case of `Cn1nnnc1C(=NOCc1csc(C#Cc2ccc(OC(F)(F)F)cc2)n1)c1ccccc1` [Example 266], the log p is reported as 4.89^[b].

Same assay, conditions: reversed phase HPLC column, pH 2.7, log p, method [b]: LC-MS at pH 2.7 with 0.1% formic acid in water and acetonitrile (0.1% formic acid), linear gradient 10% to 95% acetonitrile
`CCCCCON(C(=O)OC(C)(C)C)c1cccc(CON=C(c2ccccc2)c2nnnn2C)n1` [Example 268, tert-butyl {6-[({[(1-methyl-1H-tetrazol-5-yl)(phenyl)methylene]amino}oxy)methyl]pyridin-2-yl}(pentyloxy)carbamate] showed a chromatographic logP of 5.25. With `CCCCCCNc1nc(CON=C(c2cccc(SC)c2)c2nnnn2C)cs1` [Example 297] the chromatographic logP was 3.92. Work on `CSc1cccc(C(=NOCc2csc(C#CC3CCCC3)n2)c2nnnn2C)c1` [Example 302] yielded a chromatographic logP of 4.86. Work on `CCCCCCNc1cccc(CON=C(c2cccc(N(C)C)c2)c2nnnn2C)n1` [Example 311] yielded a chromatographic logP of 2.44.

Same assay, conditions: reversed phase HPLC column, pH 2.7, log p, method [b]: LC-MS, pH 2.7 with 0.1% formic acid in water and acetonitrile (0.1% formic acid), linear gradient 10% to 95% acetonitrile
In the case of `Cn1nnnc1C(=NOCc1csc(C#CCOCc2ccccc2)n1)c1ccccc1` [Example 263, N-({2-[3-(benzyloxy)prop-1-yn-1-yl]-1,3-thiazol-4-yl}methoxy)-1-(1-methyl-1H-tetrazol-5-yl)-1-phenylmethanimine], the chromatographic logP is reported as 4.04.
